According to ChEMBL document CHEMBL1201862, “PubChem BioAssay data set” (2004):
Blank lines part the entries; values can stand above or below the molecule they belong to. Active and inactive are the calls of the source.

Assays:
Neutrophil collagenase = Neutrophil collagenase (Homo sapiens, UniProt P22894); assay: potency against MMP13, MMP2, MMP3, MMP14 – biochemical, probe development, late stage results, selectivity assay for MMP13 inhibitor project, late-stage follow-up, panel member MMP-8 [IC50 Assay] (AID 2067)
Neutrophil collagenase, sequence (P22894 whole entry): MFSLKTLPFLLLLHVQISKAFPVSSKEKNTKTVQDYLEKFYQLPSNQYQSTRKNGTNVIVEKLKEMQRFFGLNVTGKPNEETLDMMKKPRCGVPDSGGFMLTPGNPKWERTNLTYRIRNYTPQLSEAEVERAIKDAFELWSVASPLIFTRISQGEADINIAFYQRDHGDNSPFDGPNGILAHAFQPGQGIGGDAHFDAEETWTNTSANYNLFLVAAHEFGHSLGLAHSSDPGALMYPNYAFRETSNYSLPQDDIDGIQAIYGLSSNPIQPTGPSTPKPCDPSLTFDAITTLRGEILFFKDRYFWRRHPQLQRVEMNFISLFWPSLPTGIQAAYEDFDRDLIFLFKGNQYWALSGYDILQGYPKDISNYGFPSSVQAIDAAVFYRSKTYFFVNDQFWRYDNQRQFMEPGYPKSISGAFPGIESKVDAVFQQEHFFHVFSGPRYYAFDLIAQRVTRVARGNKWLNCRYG

[1] = target: G-protein coupled receptor 55 (Homo sapiens, UniProt Q9Y2T6); assay: inhibition of LPI-stimulated GPR55 beta-arrestin translocation – imaging, U2OS, beta-arrestin-GFP, LPI agonist, primary screen (AID 2013); format: functional;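 also: antagonist potency measured as reduced agonist-driven arrestin aggregation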
G-protein coupled receptor 55, sequence (Q9Y2T6 whole entry): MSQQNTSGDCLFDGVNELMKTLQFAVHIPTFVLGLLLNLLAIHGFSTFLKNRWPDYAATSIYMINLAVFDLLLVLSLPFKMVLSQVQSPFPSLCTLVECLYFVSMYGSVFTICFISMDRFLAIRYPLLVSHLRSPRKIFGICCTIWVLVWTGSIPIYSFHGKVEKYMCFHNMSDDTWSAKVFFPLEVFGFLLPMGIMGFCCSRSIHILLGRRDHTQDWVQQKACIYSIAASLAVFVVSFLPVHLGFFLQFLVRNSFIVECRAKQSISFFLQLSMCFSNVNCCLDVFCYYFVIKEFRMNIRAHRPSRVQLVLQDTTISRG

[2] = target: G-protein coupled receptor 35 (Homo sapiens, UniProt Q9HC97); assay: inhibition of zaprinast-stimulated GPR35 beta-arrestin translocation – imaging, U2OS, beta-arrestin-GFP, zaprinast agonist, primary screen (AID 2058); format: functional;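 also: antagonist potency meaning inhibition of agonist-induced arrestin redistribution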
G-protein coupled receptor 35, sequence (Q9HC97 whole entry): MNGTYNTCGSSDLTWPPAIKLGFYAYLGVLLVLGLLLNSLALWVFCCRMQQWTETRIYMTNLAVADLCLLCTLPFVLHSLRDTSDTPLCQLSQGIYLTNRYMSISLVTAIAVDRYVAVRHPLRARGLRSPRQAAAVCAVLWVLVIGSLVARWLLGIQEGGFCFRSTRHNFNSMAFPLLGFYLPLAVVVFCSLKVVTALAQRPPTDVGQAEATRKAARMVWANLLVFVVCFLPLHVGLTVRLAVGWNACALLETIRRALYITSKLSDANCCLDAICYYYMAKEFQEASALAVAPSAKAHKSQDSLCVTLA

Cytochrome P450 2C9 = Cytochrome P450 2C9 (Homo sapiens, UniProt P11712)
Cytochrome P450 2C9, sequence (P11712 whole entry): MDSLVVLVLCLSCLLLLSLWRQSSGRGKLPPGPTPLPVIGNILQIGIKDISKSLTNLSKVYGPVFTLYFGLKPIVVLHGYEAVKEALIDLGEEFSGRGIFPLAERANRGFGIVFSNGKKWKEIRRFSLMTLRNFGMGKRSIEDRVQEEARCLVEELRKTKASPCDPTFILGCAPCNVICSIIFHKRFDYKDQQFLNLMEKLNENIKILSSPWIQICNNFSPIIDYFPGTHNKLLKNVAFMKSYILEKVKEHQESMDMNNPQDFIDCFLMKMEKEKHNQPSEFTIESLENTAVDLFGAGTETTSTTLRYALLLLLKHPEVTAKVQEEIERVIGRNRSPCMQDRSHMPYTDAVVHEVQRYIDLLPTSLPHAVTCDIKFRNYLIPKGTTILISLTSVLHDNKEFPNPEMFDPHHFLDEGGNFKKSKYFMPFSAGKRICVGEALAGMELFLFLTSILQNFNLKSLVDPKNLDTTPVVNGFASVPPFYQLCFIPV

[3] = target: T1, Voltage-gated N-type calcium channel alpha-1B subunit/Amyloid beta A4 precursor protein-binding family A member 1 (Homo sapiens, UniProt Q00975+Q02410); assay: disruptors of Mint-PDZ/N-type channel peptide interaction – biochemical, HTRF, SAR follow-up (AID 2489); format: functional
T1 sequence (Q00975 whole entry): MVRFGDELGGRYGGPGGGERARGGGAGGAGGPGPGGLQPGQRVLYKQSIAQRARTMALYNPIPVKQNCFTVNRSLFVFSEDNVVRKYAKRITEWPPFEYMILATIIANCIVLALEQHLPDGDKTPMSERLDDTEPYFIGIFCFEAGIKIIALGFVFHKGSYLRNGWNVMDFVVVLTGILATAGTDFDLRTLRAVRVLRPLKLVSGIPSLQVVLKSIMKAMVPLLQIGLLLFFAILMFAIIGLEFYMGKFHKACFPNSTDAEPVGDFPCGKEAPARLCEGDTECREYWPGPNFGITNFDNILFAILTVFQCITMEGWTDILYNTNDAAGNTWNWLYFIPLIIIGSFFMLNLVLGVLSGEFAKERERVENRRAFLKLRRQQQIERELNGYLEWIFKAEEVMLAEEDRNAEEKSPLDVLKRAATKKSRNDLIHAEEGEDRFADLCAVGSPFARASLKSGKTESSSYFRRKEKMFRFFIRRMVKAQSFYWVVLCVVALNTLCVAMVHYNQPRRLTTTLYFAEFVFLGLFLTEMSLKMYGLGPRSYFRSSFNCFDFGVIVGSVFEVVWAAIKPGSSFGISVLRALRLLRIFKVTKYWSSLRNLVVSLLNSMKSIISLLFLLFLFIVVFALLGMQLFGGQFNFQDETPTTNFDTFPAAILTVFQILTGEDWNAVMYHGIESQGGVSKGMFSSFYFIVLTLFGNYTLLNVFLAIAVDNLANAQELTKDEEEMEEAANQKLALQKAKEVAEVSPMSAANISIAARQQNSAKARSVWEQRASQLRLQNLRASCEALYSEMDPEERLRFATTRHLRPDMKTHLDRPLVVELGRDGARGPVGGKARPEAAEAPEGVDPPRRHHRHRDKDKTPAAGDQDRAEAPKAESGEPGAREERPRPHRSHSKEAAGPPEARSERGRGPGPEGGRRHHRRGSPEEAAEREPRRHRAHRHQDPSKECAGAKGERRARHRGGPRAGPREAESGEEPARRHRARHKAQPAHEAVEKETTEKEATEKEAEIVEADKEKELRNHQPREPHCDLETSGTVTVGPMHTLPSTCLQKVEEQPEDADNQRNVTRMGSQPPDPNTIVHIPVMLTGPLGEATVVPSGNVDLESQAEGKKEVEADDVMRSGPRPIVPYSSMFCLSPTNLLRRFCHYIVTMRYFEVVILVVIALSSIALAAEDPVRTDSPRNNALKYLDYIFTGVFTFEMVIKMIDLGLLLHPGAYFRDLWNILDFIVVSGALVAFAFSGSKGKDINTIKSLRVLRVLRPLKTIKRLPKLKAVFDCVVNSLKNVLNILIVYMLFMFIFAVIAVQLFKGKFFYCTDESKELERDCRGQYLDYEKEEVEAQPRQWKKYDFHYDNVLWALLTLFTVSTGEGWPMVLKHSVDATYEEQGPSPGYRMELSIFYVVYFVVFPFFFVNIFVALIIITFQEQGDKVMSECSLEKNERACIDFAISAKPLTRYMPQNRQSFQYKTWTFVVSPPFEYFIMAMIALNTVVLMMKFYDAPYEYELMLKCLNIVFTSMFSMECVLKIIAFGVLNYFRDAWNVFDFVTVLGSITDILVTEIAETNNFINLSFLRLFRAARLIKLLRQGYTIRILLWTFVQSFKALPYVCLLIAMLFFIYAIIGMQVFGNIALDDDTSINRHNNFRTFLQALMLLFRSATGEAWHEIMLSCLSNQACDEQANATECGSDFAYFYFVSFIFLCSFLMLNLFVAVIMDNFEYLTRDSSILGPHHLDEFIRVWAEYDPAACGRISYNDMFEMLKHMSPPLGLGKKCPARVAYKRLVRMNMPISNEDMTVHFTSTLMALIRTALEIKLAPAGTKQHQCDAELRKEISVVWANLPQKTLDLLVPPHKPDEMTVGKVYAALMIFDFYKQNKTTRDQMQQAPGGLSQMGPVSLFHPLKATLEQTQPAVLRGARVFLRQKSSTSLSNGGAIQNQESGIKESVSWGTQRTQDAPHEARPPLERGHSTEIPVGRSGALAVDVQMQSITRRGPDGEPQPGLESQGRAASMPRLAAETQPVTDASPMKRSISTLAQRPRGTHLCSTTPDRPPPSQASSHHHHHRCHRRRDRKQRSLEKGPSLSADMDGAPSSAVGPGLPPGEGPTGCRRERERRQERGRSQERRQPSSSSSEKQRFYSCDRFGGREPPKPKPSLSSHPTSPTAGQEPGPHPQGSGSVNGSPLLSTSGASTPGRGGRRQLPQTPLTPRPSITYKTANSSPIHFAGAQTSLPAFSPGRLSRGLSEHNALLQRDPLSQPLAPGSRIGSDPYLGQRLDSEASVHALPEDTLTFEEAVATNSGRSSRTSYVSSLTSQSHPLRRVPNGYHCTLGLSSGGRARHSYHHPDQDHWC
T1 sequence (Q02410 whole entry): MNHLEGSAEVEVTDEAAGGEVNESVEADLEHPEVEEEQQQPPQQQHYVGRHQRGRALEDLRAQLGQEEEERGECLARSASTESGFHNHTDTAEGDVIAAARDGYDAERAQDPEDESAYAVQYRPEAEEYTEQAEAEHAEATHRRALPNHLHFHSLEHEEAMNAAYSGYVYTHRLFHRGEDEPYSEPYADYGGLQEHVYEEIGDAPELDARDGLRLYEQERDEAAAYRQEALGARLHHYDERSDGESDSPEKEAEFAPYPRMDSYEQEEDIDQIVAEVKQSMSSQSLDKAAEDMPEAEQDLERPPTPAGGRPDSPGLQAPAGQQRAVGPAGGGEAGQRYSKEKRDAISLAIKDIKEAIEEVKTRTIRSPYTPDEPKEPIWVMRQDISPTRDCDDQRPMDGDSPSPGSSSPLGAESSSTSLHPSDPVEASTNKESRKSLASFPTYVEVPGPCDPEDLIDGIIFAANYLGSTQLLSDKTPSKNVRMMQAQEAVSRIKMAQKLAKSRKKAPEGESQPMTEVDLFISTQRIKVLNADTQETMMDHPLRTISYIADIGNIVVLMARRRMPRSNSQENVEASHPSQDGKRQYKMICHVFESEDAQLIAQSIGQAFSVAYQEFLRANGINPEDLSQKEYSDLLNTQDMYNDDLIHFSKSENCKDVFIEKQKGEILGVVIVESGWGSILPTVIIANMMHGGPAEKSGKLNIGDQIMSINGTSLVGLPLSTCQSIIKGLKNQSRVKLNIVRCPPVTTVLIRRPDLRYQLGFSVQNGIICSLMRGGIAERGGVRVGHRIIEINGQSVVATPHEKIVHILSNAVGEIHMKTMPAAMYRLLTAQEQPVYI

[4] = target: T1, Voltage-gated N-type calcium channel alpha-1B subunit/Amyloid beta A4 precursor protein-binding family A member 1; assay: disruptors of Mint-PDZ/N-type channel peptide interaction – biochemical, HTRF, set 2, SAR follow-up (AID 434980); format: functional
SUMO E1/E2 = SUMO E1/E2 (Homo sapiens, UniProt P63279+Q9UBE0+Q9UBT2); assay: SAR analysis of SUMOylation using HTRF in an in-Vitro dose response assay. [Related pubchem assays (depositor defined):AID2006, AID2011, AID2018, AID2069, AID2658]; format: functional
Vibrio harveyi [5] = assay: LuxS/LuxPQ-dependent luminescence inhibition, V. harveyi – dry powder, set 2, dose response (AID 493072); format: functional, organism-based
[6] = target: T2, Heat shock factor protein 1 (Mus musculus, UniProt P38532); assay: decrease of HSF1-responsive luciferase luminescence – cell-based, NIH3T3, dose retest, confirmation (AID 2382); format: functional;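 also: NIH3T3 fibroblasts with HSF1-driven luciferase reporter stressed by proteasome inhibitor MG132; luminescence from HSF1-driven luciferase expression after 8 hours of MG132 stress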
T2 sequence (P38532 whole entry): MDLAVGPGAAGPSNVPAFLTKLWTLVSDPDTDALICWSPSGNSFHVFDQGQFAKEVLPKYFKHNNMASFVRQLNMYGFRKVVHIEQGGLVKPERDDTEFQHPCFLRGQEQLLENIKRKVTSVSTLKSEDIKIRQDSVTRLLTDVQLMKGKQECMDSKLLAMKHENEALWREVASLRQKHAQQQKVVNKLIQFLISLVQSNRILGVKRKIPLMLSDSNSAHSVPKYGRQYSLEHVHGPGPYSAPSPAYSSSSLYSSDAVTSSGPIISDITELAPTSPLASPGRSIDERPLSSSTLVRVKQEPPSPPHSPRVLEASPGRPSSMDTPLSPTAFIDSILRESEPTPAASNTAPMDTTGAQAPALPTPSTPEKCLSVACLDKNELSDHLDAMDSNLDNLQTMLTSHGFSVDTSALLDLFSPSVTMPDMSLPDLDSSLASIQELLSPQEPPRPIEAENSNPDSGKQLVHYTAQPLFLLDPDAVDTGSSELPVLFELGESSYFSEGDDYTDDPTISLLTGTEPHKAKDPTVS

Vibrio harveyi [7] = assay: Quorum Sensing, LuxS, LuxPQ Measured in Microorganism System Using Plate Reader - 2035-01_Inhibitor_DoseNoFile_DryPowder_Activity. [Related pubchem assays (depositor defined):AID2106]; format: functional, organism-based
[8] = HEK-293T viability loss after treatment – luminescence, T-cell screen hits, cytotoxicity control for TCR NF-kB inhibitor project, dose response (AID 489026); format: functional, cell-based;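 also: cells exposed to compound about 14 hours before the viability readout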
J774.A1 = assay: Confirmation of image-based Screening Assay for Inhibitors of Phagocytosis. [Related pubchem assays (depositor defined):AID1029, AID1643]; format: functional, cell-based; conditions: Mus musculus

IC50 (Neutrophil collagenase): > 39.8 µM (inactive)
SMILES: O=c1[nH]c(SCCc2ccccc2)nc2c1CCC2

SMILES: CC(=O)Oc1ccc(C(c2ccc(OC(C)=O)cc2)c2ccccn2)cc1 [BISACODYL]
IC50 [1]: 908 nM (active) | IC50 [2]: > 32 µM (inactive) | AC50 (Cytochrome P450 2C9): 15.8 µM (inconclusive)

IC50 [3]: > 56.8 µM (inactive) | IC50 [4]: > 56.8 µM (inactive) | IC50 (SUMO E1/E2): 4 µM (active)
SMILES: COc1ccc(CNC(=O)COC(=O)c2cc(-c3ccc(C)o3)nc3ccccc23)cc1

SMILES: COc1cc(NC(=O)CN2C(=O)NC(c3ccccc3)(c3ccccc3)C2=O)cc(OC)c1
AC50 (Vibrio harveyi [5]): 770 nM (active) | AC50 (Vibrio harveyi [5]; Vibrio harveyi): 671 nM (active) | EC50 [6]: > 195 µM (not active) | AC50 (Vibrio harveyi [7]): 594 nM (active)

SMILES: Cc1cccc(N2CCN(C(=O)c3ccc(CS(=O)(=O)c4ccccc4C)o3)CC2C)c1 (stereo not drawn)
IC50 [8]: 19.5 µM (active) | IC50 (J774.A1): 421 nM (active)
